Reference: patent publication US8586768B2, “Design, synthesis and functional characterization of rottlerin analogs” (priority 2009, dated 2013)

Columns and labels:
Assay in all cases: In-vitro kinase profiling, radioisotope screening assay (Signal Chem)
Assay type in all cases: biochemical
PKCβ = biological target: T1, PKCβ (Homo sapiens, UniProt P05771); conditions: 5 μM compound, 50 μM ATP, vs vehicle control; negative = inhibition
T1 construct: purchased Signal Chem (Richmond, BC, Canada)
Description: (§1) Kinase profiling of PK analogs. The inhibitory effect of lead PK analogs were tested against a panel of 15 protein kinase targets (TABLE 1) to develop better lead candidates without “off” target effects. The selectivity assay was performed at Signal Chem™ (Richmond, BC, Canada) by profiling against protein kinase targets using the “Gold Standard” radioisotope screening assay format. This assay format gave the highest signal noise ratio and allowed the direct measurement of catalytic activity of a protein kinase.
(§2) All assays were performed in triplicate in a 96-well assay format and the % error between triplicates is <10%. Protein kinase assays was performed in the presence of 50 μM ATP at 30° C. for 15 min. The activity of the enzymes in the presence of 5 μM PK analogs was compared to that in the vehicle control and expressed as a percent change in activity relative to that observed in the vehicle control. In TABLE 1, the results are expressed as percent activity change compared to control. The intra-assay variability was determined to be less than 10%. Inhibition of target activity by the compound is shown by a negative value, while activation of target activity is shown by positive value, with values >10% considered to be highly significant.

P38α = biological target: T2, P38α (Homo sapiens, UniProt Q16539); conditions: 5 μM compound, 50 μM ATP, vs vehicle control; negative = inhibition
T2 construct: purchased Signal Chem (Richmond, BC, Canada)
Description: as §1, §2

PKCα = biological target: T3, PKCα (Homo sapiens, UniProt P17252); conditions: 5 μM compound, 50 μM ATP, vs vehicle control; negative = inhibition
T3 construct: purchased Signal Chem (Richmond, BC, Canada)
Description: as §1, §2

PKCη = biological target: T4, PKCη (Homo sapiens, UniProt P24723); conditions: 5 μM compound, 50 μM ATP, vs vehicle control; negative = inhibition
T4 construct: purchased Signal Chem (Richmond, BC, Canada)
Description: as §1, §2

ERKI = biological target: T5, ERKI (Homo sapiens, UniProt P27361); conditions: 5 μM compound, 50 μM ATP, vs vehicle control; negative = inhibition
T5 construct: purchased Signal Chem (Richmond, BC, Canada)
Description: as §1, §2

AKT1 = biological target: T6, AKT1 (Homo sapiens, UniProt P31749); conditions: for % activity change: 5 μM compound, 50 μM ATP, vs vehicle control, negative = inhibition
T6 construct: purchased Signal Chem (Richmond, BC, Canada)
Description: as §1, §2

CamK2a = biological target: T7, CamK2a (Homo sapiens, UniProt Q9UQM7); conditions: 5 μM compound, 50 μM ATP, vs vehicle control; negative = inhibition
T7 construct: purchased Signal Chem (Richmond, BC, Canada)
Description: as §1, §2

PKCγ = biological target: T8, PKCγ (Homo sapiens, UniProt P05129); conditions: 5 μM compound, 50 μM ATP, vs vehicle control; negative = inhibition
T8 construct: purchased Signal Chem (Richmond, BC, Canada)
Description: as §1, §2

JNK3 = biological target: T9, JNK3 (Homo sapiens, UniProt P53779); conditions: for % activity change: 5 μM compound, 50 μM ATP, vs vehicle control, negative = inhibition; for inhibited by % compared to control: 5 μM concentration, given as positive inhibition
T9 construct: purchased Signal Chem (Richmond, BC, Canada)
Description: as §1, §2

PKCμ = biological target: T10, PKCμ (Homo sapiens, UniProt Q15139); conditions: 5 μM compound, 50 μM ATP, vs vehicle control; negative = inhibition
T10 construct: purchased Signal Chem (Richmond, BC, Canada)
T10 sequence (Q15139 1-912): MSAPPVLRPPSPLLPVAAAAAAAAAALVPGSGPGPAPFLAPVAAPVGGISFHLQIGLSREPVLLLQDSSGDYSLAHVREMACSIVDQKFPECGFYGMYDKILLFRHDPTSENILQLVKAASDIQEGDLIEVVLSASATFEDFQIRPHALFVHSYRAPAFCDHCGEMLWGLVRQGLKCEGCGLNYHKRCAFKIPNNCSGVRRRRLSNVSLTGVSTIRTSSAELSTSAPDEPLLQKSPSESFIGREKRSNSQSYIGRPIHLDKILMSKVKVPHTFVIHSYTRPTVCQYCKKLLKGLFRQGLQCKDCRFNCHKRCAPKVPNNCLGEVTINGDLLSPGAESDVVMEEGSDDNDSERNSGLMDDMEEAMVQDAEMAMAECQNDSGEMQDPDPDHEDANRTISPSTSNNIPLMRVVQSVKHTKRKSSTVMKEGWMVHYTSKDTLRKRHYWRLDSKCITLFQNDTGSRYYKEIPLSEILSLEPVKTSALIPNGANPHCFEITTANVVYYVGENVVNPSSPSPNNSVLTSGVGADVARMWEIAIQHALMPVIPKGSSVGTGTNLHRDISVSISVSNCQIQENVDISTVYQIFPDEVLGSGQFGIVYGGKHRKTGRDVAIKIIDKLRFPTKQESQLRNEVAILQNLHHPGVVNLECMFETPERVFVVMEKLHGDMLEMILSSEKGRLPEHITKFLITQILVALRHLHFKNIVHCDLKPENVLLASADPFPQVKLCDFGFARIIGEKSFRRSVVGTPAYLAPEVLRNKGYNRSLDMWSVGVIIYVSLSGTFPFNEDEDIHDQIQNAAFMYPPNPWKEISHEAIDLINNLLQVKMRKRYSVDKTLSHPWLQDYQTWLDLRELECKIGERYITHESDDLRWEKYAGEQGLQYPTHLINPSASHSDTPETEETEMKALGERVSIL
Description: as §1, §2

T4 sequence (P24723 whole entry): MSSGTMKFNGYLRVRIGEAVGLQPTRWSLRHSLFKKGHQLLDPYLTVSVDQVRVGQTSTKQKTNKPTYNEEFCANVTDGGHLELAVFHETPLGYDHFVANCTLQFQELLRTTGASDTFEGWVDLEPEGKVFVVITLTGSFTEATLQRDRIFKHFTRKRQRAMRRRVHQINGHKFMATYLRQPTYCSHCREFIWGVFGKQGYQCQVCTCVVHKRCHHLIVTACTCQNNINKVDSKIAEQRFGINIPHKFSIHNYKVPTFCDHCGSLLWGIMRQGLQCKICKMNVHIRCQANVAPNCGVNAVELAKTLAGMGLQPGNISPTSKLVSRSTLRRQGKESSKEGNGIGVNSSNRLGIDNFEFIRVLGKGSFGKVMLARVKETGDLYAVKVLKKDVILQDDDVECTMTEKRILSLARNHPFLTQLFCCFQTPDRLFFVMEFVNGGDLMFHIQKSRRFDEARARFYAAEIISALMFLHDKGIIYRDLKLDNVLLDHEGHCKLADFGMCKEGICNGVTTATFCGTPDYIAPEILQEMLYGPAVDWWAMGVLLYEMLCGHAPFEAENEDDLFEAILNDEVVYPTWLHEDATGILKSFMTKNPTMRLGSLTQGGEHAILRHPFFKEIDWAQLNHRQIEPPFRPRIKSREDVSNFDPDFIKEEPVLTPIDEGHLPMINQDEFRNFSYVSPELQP
T5 sequence (P27361 whole entry): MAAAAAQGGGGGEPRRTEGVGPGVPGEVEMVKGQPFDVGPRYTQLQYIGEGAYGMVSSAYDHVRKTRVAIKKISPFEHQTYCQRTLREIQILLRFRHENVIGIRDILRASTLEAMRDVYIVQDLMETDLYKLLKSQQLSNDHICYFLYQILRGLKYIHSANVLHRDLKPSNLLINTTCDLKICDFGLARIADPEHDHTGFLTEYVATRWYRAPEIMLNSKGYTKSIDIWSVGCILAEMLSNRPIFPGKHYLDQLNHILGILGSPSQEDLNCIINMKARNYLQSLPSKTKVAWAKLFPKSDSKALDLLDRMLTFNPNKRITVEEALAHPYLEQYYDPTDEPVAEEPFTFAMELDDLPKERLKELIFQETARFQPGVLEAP
T6 sequence (P31749 whole entry): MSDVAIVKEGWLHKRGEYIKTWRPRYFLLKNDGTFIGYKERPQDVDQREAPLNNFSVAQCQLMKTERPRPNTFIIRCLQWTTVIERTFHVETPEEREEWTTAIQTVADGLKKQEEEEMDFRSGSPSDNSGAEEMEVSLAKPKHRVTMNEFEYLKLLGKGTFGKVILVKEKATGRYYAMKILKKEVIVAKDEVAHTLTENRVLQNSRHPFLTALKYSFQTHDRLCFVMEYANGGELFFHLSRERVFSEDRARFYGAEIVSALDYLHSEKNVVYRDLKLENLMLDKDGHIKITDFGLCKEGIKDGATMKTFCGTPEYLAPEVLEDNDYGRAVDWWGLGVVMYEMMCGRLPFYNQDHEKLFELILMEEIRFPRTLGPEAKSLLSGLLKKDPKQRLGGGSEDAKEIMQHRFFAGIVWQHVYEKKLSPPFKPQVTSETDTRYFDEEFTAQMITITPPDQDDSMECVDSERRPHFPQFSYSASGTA
T1 sequence (P05771 whole entry): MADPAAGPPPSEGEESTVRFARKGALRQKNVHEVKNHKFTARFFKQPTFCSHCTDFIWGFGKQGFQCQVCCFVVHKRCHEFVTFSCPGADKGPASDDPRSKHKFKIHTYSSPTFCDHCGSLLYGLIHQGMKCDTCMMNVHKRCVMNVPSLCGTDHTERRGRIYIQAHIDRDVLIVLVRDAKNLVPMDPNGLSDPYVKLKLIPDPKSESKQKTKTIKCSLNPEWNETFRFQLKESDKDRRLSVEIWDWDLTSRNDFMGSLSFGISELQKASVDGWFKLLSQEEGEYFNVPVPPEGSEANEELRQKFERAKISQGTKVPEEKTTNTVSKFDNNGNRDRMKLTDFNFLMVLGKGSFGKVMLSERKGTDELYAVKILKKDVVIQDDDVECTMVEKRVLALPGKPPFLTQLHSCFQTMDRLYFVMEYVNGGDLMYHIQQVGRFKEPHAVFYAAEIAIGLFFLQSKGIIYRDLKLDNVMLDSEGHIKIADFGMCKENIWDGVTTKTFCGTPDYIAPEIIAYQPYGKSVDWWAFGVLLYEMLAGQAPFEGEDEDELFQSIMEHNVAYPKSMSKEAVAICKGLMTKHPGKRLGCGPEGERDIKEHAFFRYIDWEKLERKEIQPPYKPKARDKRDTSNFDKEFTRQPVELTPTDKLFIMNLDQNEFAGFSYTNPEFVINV
T9 sequence (P53779 whole entry): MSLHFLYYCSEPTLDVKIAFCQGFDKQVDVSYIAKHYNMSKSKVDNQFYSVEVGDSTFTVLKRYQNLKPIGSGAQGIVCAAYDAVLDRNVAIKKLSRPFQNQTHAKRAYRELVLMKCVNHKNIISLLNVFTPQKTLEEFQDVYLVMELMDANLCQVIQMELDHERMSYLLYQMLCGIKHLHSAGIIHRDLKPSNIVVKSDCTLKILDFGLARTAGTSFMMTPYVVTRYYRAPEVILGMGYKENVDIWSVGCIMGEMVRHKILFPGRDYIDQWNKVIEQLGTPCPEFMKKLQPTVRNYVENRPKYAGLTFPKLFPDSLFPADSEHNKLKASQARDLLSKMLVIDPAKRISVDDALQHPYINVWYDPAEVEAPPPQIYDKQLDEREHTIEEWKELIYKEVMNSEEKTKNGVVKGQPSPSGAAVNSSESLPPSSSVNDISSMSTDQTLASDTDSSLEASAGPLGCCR
T7 sequence (Q9UQM7 whole entry): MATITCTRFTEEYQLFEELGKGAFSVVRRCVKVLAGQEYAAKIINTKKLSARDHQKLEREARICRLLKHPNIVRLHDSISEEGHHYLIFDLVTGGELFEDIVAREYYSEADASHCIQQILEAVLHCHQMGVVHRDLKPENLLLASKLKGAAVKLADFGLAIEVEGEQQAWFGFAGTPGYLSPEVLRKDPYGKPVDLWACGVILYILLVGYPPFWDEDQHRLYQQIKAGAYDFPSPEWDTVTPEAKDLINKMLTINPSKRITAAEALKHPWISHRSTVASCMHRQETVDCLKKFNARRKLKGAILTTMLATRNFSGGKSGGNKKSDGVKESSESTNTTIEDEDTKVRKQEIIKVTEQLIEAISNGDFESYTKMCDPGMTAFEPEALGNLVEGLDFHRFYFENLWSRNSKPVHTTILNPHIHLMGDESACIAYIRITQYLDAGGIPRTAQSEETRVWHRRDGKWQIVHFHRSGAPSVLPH
T2 sequence (Q16539 whole entry): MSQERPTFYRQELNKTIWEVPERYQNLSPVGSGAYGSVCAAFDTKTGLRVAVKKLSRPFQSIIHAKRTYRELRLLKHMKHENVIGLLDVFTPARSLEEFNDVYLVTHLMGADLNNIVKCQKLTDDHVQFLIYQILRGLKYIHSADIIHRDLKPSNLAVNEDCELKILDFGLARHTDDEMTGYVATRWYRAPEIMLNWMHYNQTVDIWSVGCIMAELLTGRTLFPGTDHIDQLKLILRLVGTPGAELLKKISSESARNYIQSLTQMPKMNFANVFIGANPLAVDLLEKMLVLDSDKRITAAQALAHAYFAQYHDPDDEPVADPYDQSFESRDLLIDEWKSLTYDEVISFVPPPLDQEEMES

Row | Structure (SMILES) | % activity change (PKCβ) [%] | % activity change (P38α) [%] | % activity change (PKCα) [%] | % activity change (PKCη) [%] | % activity change (ERKI) [%] | % activity change (AKT1) [%] | % activity change (CamK2a) [%] | % activity change (PKCγ) [%] | % activity change (JNK3) [%] | inhibited by % compared to control (JNK3) [%] | % activity change (PKCμ) [%] | inhibited by % compared to control (AKT1; 5 μM concentration, given as positive inhibition) [%] | inhibition at 5 µM (AKT1; 5 μM concentration, given as positive inhibition, read-out: inhibited by % compared to control) [%]
1 | Oc1cc(O)c(Cc2c(O)cc(O)cc2O)c(O)c1 [PK103] | 3 | −5 | −1 | 7 | 0 | −6 | 6 | 9 | −12 | 12 | 6 |  | 
2 | CC(=O)c1c(O)c(C)c(O)c(Cc2c(O)c3c(c4c2OC(c2ccccc2)CC4=O)OC(C)(C)C=C3)c1O (centres unmarked) [PK202] | 1 | −1 | 9 | 15 | 4 | −12 | 6 | 1 | −12 | 12 | 6 | 12 | 
3 | CC1(C)C=Cc2c(O)cc(O)c(C(=O)/C=C/c3ccccc3)c2O1 [PK302] | 6 | −4 | 13 | 19 | 3 | −10 | 5 | 32 | −10 |  | 2 |  | 
4 | CC(=O)c1c(O)c(C)c(O)c(Cc2c(O)c3c(c(C(=O)/C=C/c4ccccc4)c2O)OC(C)(C)C=C3)c1O [Rottlerin, (E)-1-[6-[(3-acetyl-2,4,6-trihydroxy-5-methylphenyl)methyl]-5,7-dihydroxy-2,2-dimethylchromen-8-yl]-3-phenylprop-2-en-1-one] | 0 | −1 | −7 | 12 | 3 | −14 | 7 | 6 | 7 |  | −5 |  | 14
